Results reported in ChEMBL document CHEMBL1201862, “PubChem BioAssay data set” (2004).
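Dose response: 5 concentrations. Exposure: 48 h. Format: 96-well plates. Endpoint: linear interpolation; highest concentration if not reached. Abbreviation: GI50, concentration required for 50% inhibition of growth.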 The source made the active and inactive calls. No stated cut-off is given here; in the data, active = GI50 up to about 1.1 µM and inactive = higher.

How the values were obtained:
Experiment in all cases: NCI tumour cell line growth inhibition, 48 h
CAKI-1 = system: CAKI-1
HCC 2998 = system: HCC 2998
HCT-15 = system: HCT-15
HL-60 = system: HL-60
HOP-92 = system: HOP-92
Hs-578T = system: Hs-578T
KM12 = system: KM12
M14 = system: M14
MDA-N = system: MDA-N
Malme-3M = system: Malme-3M
NCI-H522 = system: NCI-H522
PC-3 = system: PC-3
RXF 393 = system: RXF 393
SF-268 = system: SF-268
SK-MEL-28 = system: SK-MEL-28
SK-OV-3 = system: SK-OV-3
SNB-19 = system: SNB-19
SNB-75 = system: SNB-75
SR = system: SR
TK-10 = system: TK-10

SMILES | GI50 (CAKI-1) | GI50 (HCC 2998) | GI50 (HCT-15) [µM] | GI50 (HL-60) | GI50 (HOP-92) | GI50 (Hs-578T) | GI50 (KM12) | GI50 (M14) | GI50 (MDA-N) | GI50 (Malme-3M) | GI50 (NCI-H522) | GI50 (PC-3) | GI50 (RXF 393) | GI50 (SF-268) | GI50 (SK-MEL-28) | GI50 (SK-OV-3) | GI50 (SNB-19) | GI50 (SNB-75) | GI50 (SR) | GI50 (TK-10)
COc1ccc(-c2cn3c(n2)sc2cc(C)ccc23)cc1 | 57.5 µM (inactive) | 12.5 µM (inactive) | 38.5 | 3.45 µM (inactive) | 2.86 µM (inactive) | 18.2 µM (inactive) | 5.05 µM (inactive) | 26.1 µM (inactive) | 5.08 µM (inactive) | 37.8 µM (inactive) | 5.55 µM (inactive) | 14.8 µM (inactive) | 16.6 µM (inactive) | 22.8 µM (inactive) | 38.3 µM (inactive) | 22.1 µM (inactive) | 12.5 µM (inactive) | 17.4 µM (inactive) | 4.86 µM (inactive) | 22.1 µM (inactive)
COc1ccc2[nH]c3c(C)c4ncccc4c(C)c3c2c1 | > 10 µM (inactive) | 8.97 µM (inactive) | 2.99 | 3.01 µM (inactive) | 8.34 µM (inactive) | > 10 µM (inactive) | 1.93 µM (inactive) | 1.64 µM (inactive) | 6.81 µM (inactive) | 1.65 µM (inactive) | > 10 µM (inactive) | 6.11 µM (inactive) | 3.59 µM (inactive) | > 10 µM (inactive) | 1.99 µM (inactive) | > 10 µM (inactive) | > 10 µM (inactive) | 9.91 µM (inactive) | 5.22 µM (inactive) | > 10 µM (inactive)
O=c1c2ccccc2nc(-c2ccccc2)n1O | 8.47 µM (inactive) | > 100 µM (inactive) | 41.1 | 54 µM (inactive) | 22.9 µM (inactive) | > 100 µM (inactive) | 67 µM (inactive) | 95.7 µM (inactive) | > 100 µM (inactive) | > 100 µM (inactive) | > 100 µM (inactive) | > 100 µM (inactive) | 31.3 µM (inactive) | > 100 µM (inactive) | > 100 µM (inactive) | > 100 µM (inactive) | > 100 µM (inactive) | 87.3 µM (inactive) | 23.3 µM (inactive) | > 100 µM (inactive)
CC1(C)CCC(=O)NC1CC(=O)CC1NC(=O)CCC1(C)C (stereo not given) | > 100 µM (inactive) | > 100 µM (inactive) | > 100 | 32.7 µM (inactive) | > 100 µM (inactive) | > 100 µM (inactive) | > 100 µM (inactive) | > 100 µM (inactive) | > 100 µM (inactive) | > 100 µM (inactive) | > 100 µM (inactive) | > 100 µM (inactive) | > 100 µM (inactive) | > 100 µM (inactive) | > 100 µM (inactive) | > 100 µM (inactive) | > 100 µM (inactive) | > 100 µM (inactive) | 7.08 µM (inactive) | > 100 µM (inactive)
CC(=O)OC(C)C1C2=C(C(=O)CC1(C)O)C(=O)c1c(ccc(-c3ccc4c(c3O)C(=O)C3=C(C4=O)C(C(C)OC(C)=O)C(C)(O)CC3=O)c1O)C2=O (stereo not given) | 2.82 µM (inactive) | 10.7 µM (inactive) | 2.58 | 0.398 µM (active) | 1.57 µM (inactive) | 2.11 µM (inactive) | 3.19 µM (inactive) | 2.11 µM (inactive) | 3.15 µM (inactive) | 0.724 µM (active) | 1.56 µM (inactive) | 3.1 µM (inactive) | 1.74 µM (inactive) | 2.95 µM (inactive) | 2.12 µM (inactive) | 10.8 µM (inactive) | 11.7 µM (inactive) | 2.49 µM (inactive) | 1.1 µM (active) | 2.19 µM (inactive)
Cn1c2ccccc2c2ccc3c(c21)C(=O)c1ccc2c4ccccc4n(C)c2c1C3=O | > 100 µM (inactive) | > 100 µM (inactive) | > 100 | > 100 µM (inactive) | > 100 µM (inactive) | > 100 µM (inactive) | > 100 µM (inactive) | > 100 µM (inactive) | > 100 µM (inactive) | 87.5 µM (inactive) | > 100 µM (inactive) | > 100 µM (inactive) | > 100 µM (inactive) | > 100 µM (inactive) | > 100 µM (inactive) | > 100 µM (inactive) | > 100 µM (inactive) | > 100 µM (inactive) | > 100 µM (inactive) | > 100 µM (inactive)
CC1C(O)Oc2cc3c(cc2C1c1ccccc1O)OCO3 (stereo not given) | 29.2 µM (inactive) | 38.5 µM (inactive) | 33.1 | 17.9 µM (inactive) | 15.2 µM (inactive) | 11.5 µM (inactive) | 32.1 µM (inactive) | 30.5 µM (inactive) | 30.5 µM (inactive) | 25.3 µM (inactive) | 17.1 µM (inactive) | 19.5 µM (inactive) | 14.3 µM (inactive) | 36.1 µM (inactive) | 25.8 µM (inactive) | 39.9 µM (inactive) | 51.6 µM (inactive) | 24.6 µM (inactive) | 4.65 µM (inactive) | 27.4 µM (inactive)
C[C@]1(O)O[C@@H]2OCC[C@@H]2C2=C1C(=O)c1ccccc1C2=O | 20.1 µM (inactive) | 17.3 µM (inactive) | 19 | 12.3 µM (inactive) | 12.8 µM (inactive) | 30.3 µM (inactive) | 14.8 µM (inactive) | 11.3 µM (inactive) | 6.15 µM (inactive) | 15.9 µM (inactive) | 16.6 µM (inactive) | 22.1 µM (inactive) | 12.7 µM (inactive) | 12.8 µM (inactive) | 29.4 µM (inactive) | 21.9 µM (inactive) | 18 µM (inactive) | 29.6 µM (inactive) | 10.7 µM (inactive) | 20.4 µM (inactive)
COc1ccc(C2c3cc4c(cc3OC(N3CCOCC3)C2C)OCO4)c(OC)c1 (stereo not given) | 4.47 µM (inactive) | 4.17 µM (inactive) | 4.34 | 2.7 µM (inactive) | 3.32 µM (inactive) | 1.97 µM (inactive) | 4.94 µM (inactive) | 3.96 µM (inactive) | 1.64 µM (inactive) | 5.11 µM (inactive) | 2.68 µM (inactive) | 7.6 µM (inactive) | 2.94 µM (inactive) | 6.95 µM (inactive) | 8.49 µM (inactive) | 4.43 µM (inactive) | 4.36 µM (inactive) | 3.95 µM (inactive) | 4.21 µM (inactive) | 7.78 µM (inactive)
